Results reported in US7989494B2, “Polymorphs of N-hydroxy-3-[4-[[[2-(2-methyl-1H-indol-3-yl)ethyl]amino]methyl]phenyl]-2E-2-propenamide” (Novartis AG, priority 2006, dated 2011).
Where a name gives a salt, the structure may show the parent alone.

Legend:
Type in all cases: physicochemical
[1] = Solubility in organic solvents
[2] = Equilibration in solvents and aqueous media, solid form by XRPD
[3] = Intrinsic dissolution
[4] = Sorption-desorption isotherms, VTI humidity balance; settings: for Sorption: 25° C., first sorption cycle; for Desorption: in % (unit assumed)
Procedure: Sorption-desorption isotherms were recorded by a VTI humidity balance. The salts of (N-hydroxy-3-[4-[[[2-(2-methyl-1H-indol-3-yl)ethyl]amino]methyl]phenyl]-2E-2-propenamide were first subjected to a drying step (25° C., r.h. below 2%, 2 hours) and then to a sorption-desorption-sorption sequence, with each RH % step retained for 3 hours. The free base was kept below 2% r.h. for several hours, and thus was completely dehydrated after the drying step. Only the data of the first sorption cycle are given in the table, since, in all cases, the two sorption cycles were very similar.

[5] = Aqueous solubility; settings: water
[6] = Hygroscopicity (descriptive)

**Q.** With `Cc1[nH]c2ccccc2c1CCNCc1ccc(/C=C/C(=O)NO)cc1` [Form A of the maleate salt, N-hydroxy-3-[4-[[[2-(2-methyl-1H-indol-3-yl)ethyl]amino]methyl]phenyl]-2E-2-propenamide] as the molecule, how does the “solubility in methanol and ethanol” value [1] read?
**A.** The value was “high solubility”.

**Q.** What about the “solubility in other common / remaining organic solvents” value [1] of the same molecule?
**A.** The value was “considerable solubility”.

**Q.** And the “XRPD form after equilibration” value ([2]; 2-Propanol)?
**A.** The value was “No change”.

**Q.** And the “XRPD form after equilibration” value ([2]; Acetone)?
**A.** Its value is “No change”.

**Q.** What about the “XRPD form after equilibration” value ([2]; Ethanol) of the same molecule?
**A.** Its value is “No change”.

**Q.** And the “XRPD form after equilibration” value ([2]; Ethyl Acetate)?
**A.** Its value is “No change”.

**Q.** What about the “XRPD form after equilibration” value ([2]; Methanol) of the same molecule?
**A.** Its value is “No change”.

**Q.** And the “XRPD form after equilibration” value ([2]; pH = 6.8 buffer (phosphate))?
**A.** The value was “No change”.

**Q.** And the “XRPD form after equilibration” value ([2]; water)?
**A.** Its value is “No change”.

**Q.** What about the intrinsic dissolution [3] of the same molecule?
**A.** Its intrinsic dissolution is “good”.

**Q.** What about the Sorption ([4]; Sample RH % 1.5) of the same molecule?
**A.** Its Sorption is 0%.

**Q.** What about the Sorption ([4]; Sample RH % 5) of the same molecule?
**A.** Its Sorption is 0.02%.

**Q.** What about the Desorption ([4]; Sample RH % 5) of the same molecule?
**A.** Its Desorption is −0.02.

**Q.** What about the Sorption ([4]; Sample RH % 25) of the same molecule?
**A.** The Sorption was 0.07%.

**Q.** And the Desorption ([4]; Sample RH % 25)?
**A.** The Desorption was 0.05.

**Q.** And the Sorption ([4]; Sample RH % 50)?
**A.** Its Sorption is 0.12%.

**Q.** And the Desorption ([4]; Sample RH % 50)?
**A.** The Desorption was 0.10.

**Q.** And the Sorption ([4]; Sample RH % 75)?
**A.** Its Sorption is 0.16%.

**Q.** What about the Desorption ([4]; Sample RH % 75) of the same molecule?
**A.** Its Desorption is 0.17.

**Q.** And the Sorption ([4]; Sample RH % 85)?
**A.** Its Sorption is 0.17%.

**Q.** And the Desorption ([4]; Sample RH % 85)?
**A.** Its Desorption is 0.19.

**Q.** What about the Sorption ([4]; Sample RH % 95) of the same molecule?
**A.** The Sorption was 0.21%.

**Q.** What about the Desorption ([4]; Sample RH % 95) of the same molecule?
**A.** Its Desorption is 0.21.

**Q.** And the aqueous solubility [5]?
**A.** Its aqueous solubility is 2600 µg/mL.

**Q.** And the hygroscopicity [6]?
**A.** Its hygroscopicity is “nonhygroscopic”.

**Q.** With `Cc1[nH]c2ccccc2c1CCNCc1ccc(/C=C/C(=O)NO)cc1` [Form A of the mesylate salt, N-hydroxy-3-[4-[[[2-(2-methyl-1H-indol-3-yl)ethyl]amino]methyl]phenyl]-2E-2-propenamide] as the molecule, how does the “solubility in methanol and ethanol” value [1] read?
**A.** Its value is “high solubility”.

**Q.** And the “solubility in other common / remaining organic solvents” value [1]?
**A.** The value was “appreciable solubility”.

**Q.** What about the “XRPD form after equilibration” value ([2]; 0.1 N HCl) of the same molecule?
**A.** Its value is “hydrochloride salt”.

**Q.** And the “XRPD form after equilibration” value ([2]; 2-Propanol)?
**A.** Its value is “No change”.

**Q.** And the “XRPD form after equilibration” value ([2]; Acetone)?
**A.** The value was “No change”.

**Q.** And the “XRPD form after equilibration” value ([2]; Ethanol)?
**A.** Its value is “No change”.

**Q.** What about the “XRPD form after equilibration” value ([2]; Ethyl Acetate) of the same molecule?
**A.** Its value is “No change”.

**Q.** What about the “XRPD form after equilibration” value ([2]; Water, listed as Mesylate) of the same molecule?
**A.** Its value is “Changed to new”.

**Q.** What about the “XRPD form after equilibration” value ([2]; pH = 6.8 buffer (phosphate)) of the same molecule?
**A.** Its value is “free base”.

**Q.** And the “XRPD form after equilibration” value ([2]; water)?
**A.** Its value is “converts to form B”.

**Q.** What about the intrinsic dissolution [3] of the same molecule?
**A.** The intrinsic dissolution was “high”.

**Q.** What about the “moisture at 85% r.h.” value ([4]; 85% r.h.) of the same molecule?
**A.** Its value is “less than 0.35%”.

**Q.** What about the Sorption ([4]; Sample RH % 1.5) of the same molecule?
**A.** Its Sorption is 0%.

**Q.** And the Sorption ([4]; Sample RH % 5)?
**A.** Its Sorption is 0.03%.

**Q.** And the Desorption ([4]; Sample RH % 5)?
**A.** Its Desorption is −0.03.

**Q.** And the Sorption ([4]; Sample RH % 25)?
**A.** The Sorption was 0.1%.

**Q.** And the Desorption ([4]; Sample RH % 25)?
**A.** The Desorption was 0.07.

**Q.** What about the Sorption ([4]; Sample RH % 50) of the same molecule?
**A.** The Sorption was 0.16%.

**Q.** What about the Desorption ([4]; Sample RH % 50) of the same molecule?
**A.** The Desorption was 0.16.

**Q.** What about the Sorption ([4]; Sample RH % 75) of the same molecule?
**A.** The Sorption was 0.23%.

**Q.** And the Desorption ([4]; Sample RH % 75)?
**A.** The Desorption was 0.25.

**Q.** And the Sorption ([4]; Sample RH % 85)?
**A.** Its Sorption is 0.31%.

**Q.** What about the Desorption ([4]; Sample RH % 85) of the same molecule?
**A.** The Desorption was 0.33.

**Q.** What about the Sorption ([4]; Sample RH % 95) of the same molecule?
**A.** Its Sorption is 0.82%.

**Q.** What about the Desorption ([4]; Sample RH % 95) of the same molecule?
**A.** The Desorption was 0.82.

**Q.** What about the aqueous solubility [5] of the same molecule?
**A.** The aqueous solubility was 12900 µg/mL.

**Q.** And the hygroscopicity [6]?
**A.** The hygroscopicity was “very slightly hygroscopic”.
